pIC50: −log10 of the molar value. Where two headings read alike, the source gives them in different places.
Experiments:
[1] = test system: vasodilatation response during twitch contraction of skeletal muscle; assay: Anaesthetised cat exercise hyperaemia test; format: in vivo; details: Felis catus, iv, 20 min, hind limb contraction at 3 Hz for 20 minutes, read-out: dose producing significant inhibition of vasodilatation during exercise
Description: (f) Anaesthetised cat exercise hyperaemia test
This test involves assessment of the effect of a test compound to antagonise the vasodilatation response which occurs during twitch contraction of skeletal muscle. The vasodilation is mediated partly by the release of endogenous adenosine from the contracting skeletal muscle.
Cats (2.4-3.6 kg) are anaesthetised with sodium pentobarbitone (50 mg.kg^-1 ip). The following blood vessels are catheterized: left jugular vein (for infusion of anaesthetic, at approximately […] as a 6 mg.ml^-1 solution in isotonic saline), right external jugular vein (for administration of drugs and test compounds), right common carotid artery (for measurement of systemic arterial blood pressure and pulse rate) and right brachial artery (for withdrawal of blood).
Blood flow to the left hind limb is measured with an electromagnetic flow probe around the left external iliac artery. The whole of the left hind limb is made to contract at 3 Hz for 20 minutes duration by stimulating the sciatic and femoral nerves. Active tension produced by the extensor digitorum longus and peroneous longus muscles is measured isometrically with a force transducer. […] Test compounds are assessed for their ability to reduce the vasodilatation during skeletal muscle contraction. […]

[2] = target: T1, adenosine receptor known as A1 (Cavia porcellus, UniProt P47745); assay: Guinea-pig Atrial Bradycardic Test; details: antagonism of bradycardic effect of 2-chloroadenosine, beating guinea-pig atrial pair; read-out: pA2 (converted)
T1 construct: Atrial pairs are obtained from guinea-pigs (Dunkin Hartley strain, 250-400 g males); from tissue; host or cells: spontaneously beating atrial pairs, Dunkin Hartley guinea pig
T1 sequence (P47745 1-326): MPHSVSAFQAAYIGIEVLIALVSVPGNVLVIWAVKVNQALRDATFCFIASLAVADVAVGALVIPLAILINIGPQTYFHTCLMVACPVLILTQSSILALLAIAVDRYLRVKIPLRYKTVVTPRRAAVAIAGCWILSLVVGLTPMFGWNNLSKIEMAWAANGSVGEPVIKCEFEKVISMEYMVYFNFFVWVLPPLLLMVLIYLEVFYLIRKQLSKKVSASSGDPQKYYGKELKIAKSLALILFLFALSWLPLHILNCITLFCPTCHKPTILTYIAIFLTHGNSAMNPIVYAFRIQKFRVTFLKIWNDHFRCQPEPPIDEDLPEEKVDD
Description: (c) Guinea-pig Atrial Bradycardic Test
The atrial pair preparation may be obtained as follows: Atrial pairs are obtained from guinea-pigs (Dunkin Hartley strain, 250-400 g males) and mounted in organ baths containing oxygenated Krebs buffer solution (95% O2; 5% CO2) at 37° C. The spontaneously beating atria are then placed under a resting tension of 1 g and allowed to equilibrate for 50 minutes with continuous overflow. Overflow is then stopped and adenosine deaminase (1 Unit/ml) added to prevent the accumulation of endogenously produced adenosine. After equilibration for 15 minutes, a cumulative dose response curve to the adenosine mimetic, 2-chloroadenosine(10^-8 M to 10^-4 M) is administered to produce a maximal slowing of atrial rate. After washout during 30 minutes, adenosine deaminase is readministered to the bath which is allowed to equilibrate for 15 minutes. A 10^-5 M solution of the test compound in DMSO is then added to the bath which is left to incubate for 30 minutes. Any effect on the beating rate due to the test compound is noted before the dose response curve to 2-chloroadenosine is repeated. Compounds which are adenosine antagonists attenuate the 2-chloroadenosine response.
Test compounds are assessed by comparing dose response curves to 2-chloroadenosine alone with those obtained in the presence of the compound. […]

[3] = test system: actions of adenosine in lowering heart rate and increasing vasodilation (hind-limb perfusion pressure); assay: Anaesthetised dog Test; format: in vivo; details: Schild plot, antagonism of vasodilator response to adenosine
Description: (e) Anaesthetised dog Test
This test involves the assessment of the effects of a test compound on antagonising the actions of adenosine in lowering heart rate and increasing vasodilation (as measured by a fall in hind-limb perfusion pressure).
Beagles (12-18 kg) are anaesthetised with sodium pentobarbitone (50 mg/kg, iv). […] Both vagi, the right femoral and sciatic nerves are ligated and severed. […] The right leg is tied just below the ankle. Xamoterol (1 mg/kg) is then administered to the animal to stabilise heart rate at a high level and nitrobenzylthioinosine (NBTI, 0.5 mg/kg) to inhibit the uptake of adenosine. The animal is sensitised to adenosine during the equilibration time following NBTI by carrying out a dose response curve (DRC). During this time any blood gas or pH imbalance is corrected. A control DRC is performed followed-d by up to three DRC's after cumulative administration of the test compound (as described in (d) above). […] Similarly, blood gases and pH are maintained within physiological limits throughout the evaluation.
From this plot a KB value is determined for antagonism of heart rate response and vasodilator response to adenosine.

[4] = target: T2, adenosine receptor known as A2; assay: Guinea-pig Aortic Constriction Test; details: antagonism of adenosine relaxation of phenylephrine constricted guinea-pig aortic ring; read-out: pA2 (converted)
T2 construct: guinea pig thoracic aorta (from Dunkin Hartley strain, 250-400 g males); from tissue; host or cells: thoracic aortic rings, Dunkin Hartley guinea pig
Description: (b) Guinea-pig Aortic Constriction Test
The aortic ring preparation is obtained as follows: Sections (3-5 mm) of guinea pig thoracic aorta (from Dunkin Hartley strain, 250-400 g males) are mounted in organ baths containing oxygenated Krebs solution (95% O2 : 5% CO2) at 37° C. [The nucleoside transport inhibitor, dipyridamole (10 μM) is present in the Krebs solution]. The isometric tension development is recorded and the tissue placed under a resting tension of 1 g and allowed to equilibrate for 1 hour. The aortic ring preparation is then sensitised to 10^-5 M phenylephrine. Erythro-9-(2-hydroxy-3-nonyl)adenine (EHNA) (10 μM) is added to the preparation and after 10 minutes the tissue is constricted to approximately 50% maximum by adding 3×10^-6 M phenylephrine. Adenosine is next added cumulatively (10^-7 M to 10^-3 M) and the evoked relaxation is measured. After washout for 20 minutes, a 10^5 M solution of the test compound in DMSO (maximum 1% by volume) diluted with Krebs solution is added and left to equilibrate for 30 minutes. Twenty minutes into the equilibration period further EHNA (10 μM) is added to the preparation and 10 minutes later phenylephrine (3×10^-6 M) is introduced to produce constrictive tone again. A repeat dose response curve to adenosine is then carried out followed by washout.
Significant antagonist activity in this assay is indicated by a DR of >2.

A2 Adenosine receptor = target: T3, A2 Adenosine receptor (Rattus norvegicus, UniProt P30543); assay: A2 Adenosine receptor affinity test ([3H]-NECA displacement, PC12 membranes); format: binding
T3 construct: membrane preparations derived from the rat phaeochromocytoma cell line PC 12; endogenous in cells; host or cells: PC 12 (rat phaeochromocytoma; cell line available from the Beatson Institute, Glasgow)
Description: The separated cells are then suspended in hypotonic solution (distilled water), allowed to stand on ice for 30 minutes and are then carefully homogenized using a standard high-speed homogeniser with periodic ice-cooling to obtain a fine suspension. […] A1280). […] After 20 minutes, the reaction is terminated by dilution with ice-cold buffer and transfer onto ice. The material obtained containing the cell membranes is recovered by centrifugation and washed by resuspension in buffer and recentrifugation. The pellet produced is then resuspended in ice-cold buffer using a hand-driven homogenizer. The resultant membrane suspension is frozen and stored under liquid nitrogen until required. […] After incubation, the samples are rapidly filtered over glass-fibre mats and the filter mats are washed to remove non-receptor-bound radioligand. Receptor-bound radioligand entrapped on the filter mats is then determined by liquid scintillation counting. Filtration and washing are carried out using a conventional vacuum filtration cell harvester. The specific binding (defined as the difference between the total binding and the non-specific binding) in the presence of the particular test compound is determined and compared with the control value.

[5] = test system: fall in diastolic blood pressure produced by 2-chloroadenosine; assay: Anaesthetised cat blood pressure Test; format: in vivo; details: i.v., Schild plot, 2-chloroadenosine 30 mm Hg fall in diastolic blood pressure
Description: (d) Anaesthetised cat blood pressure Test This test assesses the ability of a test compound to antagonise the fall in diastolic blood pressure produced by administration of the adenosine mimetic, 2-chloroadenosine. […] The blood gas status and pH are determined, and are maintained within physiological limits, before administration of 2-chloroadenosine. […] A solution of the test compound in a mixture of 50% v/v polyethylene glycol (PEG) 400 and 0.1M sodium hydroxide is then administered i.v. and after 15 minutes the DRC to 2-chloroadenosine is determined. This procedure is repeated twice with blood gases and pH being monitored and maintained within physiological limits between each DRC. […] From this plot a KB value is determined.

[6] = test system: adenosine induced decrease in blood pressure; assay: Conscious cat oral modification of Test (d); format: in vivo; details: conscious cats, at several times the minimum effective dose
Source text: The above Test (d) may conveniently be modified to allow evaluation of orally administered test compounds by administering the test compound to conscious cats with indwelling arterial and venous catheters and measuring the effect in preventing an adenosine induced decrease in blood pressure.

T2 sequence (P29275 whole entry): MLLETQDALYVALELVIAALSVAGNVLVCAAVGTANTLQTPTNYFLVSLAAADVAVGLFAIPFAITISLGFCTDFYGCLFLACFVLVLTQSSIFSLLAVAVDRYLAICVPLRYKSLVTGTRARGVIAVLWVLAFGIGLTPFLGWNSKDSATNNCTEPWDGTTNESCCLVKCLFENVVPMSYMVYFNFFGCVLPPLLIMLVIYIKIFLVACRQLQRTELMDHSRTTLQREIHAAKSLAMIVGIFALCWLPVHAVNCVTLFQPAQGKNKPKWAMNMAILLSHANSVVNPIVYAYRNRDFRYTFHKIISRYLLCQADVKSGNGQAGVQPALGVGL
T3 sequence (P30543 whole entry): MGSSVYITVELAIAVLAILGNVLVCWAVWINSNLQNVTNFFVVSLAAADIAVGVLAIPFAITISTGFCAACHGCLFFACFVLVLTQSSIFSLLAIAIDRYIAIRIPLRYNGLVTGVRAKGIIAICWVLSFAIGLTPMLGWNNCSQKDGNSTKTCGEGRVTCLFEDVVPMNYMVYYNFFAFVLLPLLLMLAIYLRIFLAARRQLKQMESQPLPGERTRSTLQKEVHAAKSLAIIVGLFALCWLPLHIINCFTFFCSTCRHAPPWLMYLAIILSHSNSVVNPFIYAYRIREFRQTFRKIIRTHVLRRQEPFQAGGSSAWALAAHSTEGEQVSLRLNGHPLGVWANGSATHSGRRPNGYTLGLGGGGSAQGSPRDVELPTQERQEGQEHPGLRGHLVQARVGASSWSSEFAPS

Structure (SMILES)	minimal effective dose [1] [mg/kg]	Kb [2] [nM]	KB [3] [mg/kg]	Kb [4] [nM]	pIC50 (A2 Adenosine receptor; displacement of [3H]-NECA, rat PC 12 cell membranes, 30° C., 90 minutes)	KB [5] [mg/kg]	sign of overt toxicity [6]	pIC50 (A2 Adenosine receptor)
Cn1c(=O)c2[nH]cnc2n(C)c1=O [1,3-dimethylxanthine, reference compound]	10							
Nc1nc(Oc2ccccc2)nc2cc(-c3ccco3)nn12 [Example 119, 7-amino-2-(2-furyl)-5-phenoxy-pyrazolo[2,3-a][1,3,5]triazine]		1000	1.1	50.1	~8.50	0.7		
Nc1nc(Oc2ccccc2)nc2nc(-c3ccco3)nn12 [Example 1, 7-amino-2-(2-furyl)-5-phenoxy-[1,2,4]triazolo[1,5-a][1,3,5]triazine]	0.1 to 1	631	0.03	39.8		0.03	without any sign of overt toxicity	~8.00

— US5270311A, “[1,2,4]-Triazolo[1,5-a]and pyrazolo[2,3-a][1,3,5]triazine derivatives” (Imperial Chemical Industries PLC, priority 1990, dated 1993)
